For series [1], the system named is IL-1β cytokine output from THP-1s. As to the kind of experiment: THP-1 AlphaLISA IL-1β cytokine inhibition assay. It counts as cell-based. Particulars: Homo sapiens, THP-1, differentiated THP-1 cells, LPS then nigericin. Here is the method: Measuring Inhibitory Effects on IL-1β Cytokine Output from THP-1s
The cytokine inhibition profiles of compounds of formula (I) were determined in a differentiated THP-1 cell assay. All assays were performed in RPMI-1640 growth medium (Gibco), supplemented with 10% fetal bovine serum (FBS; Gibco), 1% penicillin-streptomycin and 1% sodium pyruvate unless specified otherwise. The IL-1β cytokine inhibition assay was run in a background of differentiated THP-1 cells as described below. All reagents described were from Sigma-Aldrich unless specified otherwise. Compounds were prepared as 10 mM DMSO stocks.
THP-1 cells were expanded as a suspension up to 80% confluence in appropriate growth medium. Cells were harvested, suspended, and treated with an appropriate concentration of phorbol 12-myristate 13-acetate (PMA) over a 72 hr period (37° C./5% CO2).
Following 72 hrs of THP-1 cell incubation, cellular medium was removed and replaced with fresh growth media containing 1% of FBS. Working concentrations of compounds were prepared separately in 10% FBS treated growth medium and pre-incubated with the cells for 30 minutes (37° C./5% CO2). Following the 30 minute compound pre-incubation, THP-1s were treated with an appropriate concentration of LPS and the cells were subsequently incubated for a 24 hr period (37° C./5% CO2). An appropriate final concentration of Nigericin was then dispensed into the THP-1 plates and incubated for 1 hour (37° C./5% CO2) before THP-1 supernatants were harvested and collected in separate polypropylene 96-well holding plates.
Reagents from an IL-1β and IL-6 commercial kit (Perkin Elmer) were prepared and run according to the manufacturer's instructions. Subsequently, fluorescence signal detection in a microplate reader was measured (EnVision® Multilabel Reader, Perkin Elmer).
Percentage inhibition was calculated per cytokine by normalising the sample data to the high and low controls used within each plate (+/− LPS respectively).

Series [2] is described as follows: Hepatocyte stability assay, mouse. It counts as in vitro ADME. As to conditions: mouse, hepatocytes; for hepatocyte CLint at 10 μM: Hepatocyte stability Clint; for half-life at 10 μM: Hepatocyte stability T½. An excerpt:
(§1) Defrosted cryo-preserved hepatocytes (viability >70%) were used to determine the metabolic stability of a compound via calculation of intrinsic clearance (CIint; a measure of the removal of a compound from the liver in the absence of blood flow and cell binding). Clearance data are particularly important for in vitro work as they can be used in combination with in vivo data to predict the half-life and oral bioavailability of a drug.
(§2) The metabolic stability in hepatocytes assay involves a time-dependent reaction using both positive and negative controls. The cells were pre-incubated at 37° C. then spiked with test compound (and positive control); samples were taken at pre-determined time intervals and were analysed to monitor the change in concentration of the initial drug compound over 60 minutes. A buffer incubation reaction (with no hepatocytes present) acted as a negative control and two cocktail solutions, containing compounds with known high and low clearance values (verapamil/7-hydroxycoumarin and propranolol/diltiazem), acted as positive controls. • 1. The assay was run with a cell concentration of 0.5×10^6 cells/mL in Leibovitz buffer. • 2. All compounds and controls were run in duplicate. • 3. Compound concentration was 10 μM. • 4. All compounds and controls were incubated with both cells and buffer to show turnover was due to hepatic metabolism. • 5. All wells on the incubation plate had 326.7 μL of either cells or buffer added. • 6. Prior to assay, cell and buffer-only incubation plates were preincubated for 10 mins at 37° C. • 7. The assay was initiated by adding compounds, 3.3 μL of 1 mM in 10% DMSO—90% Buffer; final DMSO concentration was 0.1%. • 8. Samples were taken at regular timepoints (0, 5, 10, 20, 40, 60 min) until 60 mins. • 9. Sample volume was 40 μL and was added to 160 μL of crash solvent (acetonitrile with internal standard) and stored on ice. • 10. At the end of the assay, the crash plates were centrifuged at 3500 rpm for 20 mins at 4° C. • 11. 80 μL of clear supernatant was removed and mixed with 80 μL of deionised water before being analysed by LC-MS/MS.
(§3) Raw LC-MS/MS data was exported to, and analysed in, Microsoft Excel for determination of intrinsic clearance. The percentage remaining of a compound was monitored using the peak area of the initial concentration as 100%. Intrinsic clearance and half-life values were calculated using a graph of the natural log of percentage remaining versus the time of reaction in minutes.

Series [3] can be described thus: Hepatocyte stability assay, human. It counts as in vitro ADME. Particulars: human, hepatocytes; for hepatocyte CLint at 10 μM: Hepatocyte stability Clint; for half-life at 10 μM: Hepatocyte stability T½.
Source text: as §1, §2, §3

As for `C=C(Cc1nc(C2(c3ccc(C4CCCC4)cc3)CC2)no1)C(=O)O` [Example 115], in series [1], the midpoint of inhibition, the IC50, lay at 7.9 µM. Moreover, the hepatocyte CLint (in general, the capacity of the preparation to metabolise the compound, expressed as a volume cleared per time) at 10 μM in series [2] is 87 µL/min/1e6 cells; in series [3] it was 28 µL/min/1e6 cells. In addition, the results for the half-life at 10 μM in series [2] and in series [3] were 15 min and 55 min, respectively.
For `C=C(Cc1nc(Cc2ccc(C3(CCC)CC3)cc2)no1)C(=O)O` [Example 147, 2-((3-(4-(1-propylcyclopropyl)benzyl)-1,2,4-oxadiazol-5-yl)methyl)acrylic acid], in that order: 29.9 µM, above 460 µL/min/1e6 cells, 67 µL/min/1e6 cells, below 3 min and 22 min.
For `C=C(Cc1nc(CCCCCCCC)cs1)C(=O)O` [Example 38, 2-((4-octylthiazol-2-yl)methyl)acrylic acid], in that order: 7.8 µM, 204 µL/min/1e6 cells, above 447 µL/min/1e6 cells, 9 min and below 3 min.
For `C=C(Cc1nc(C(F)(F)c2ccc(C)c(Cl)c2)no1)C(=O)O` [Example 151, 2-((3-((3-chloro-4-methylphenyl)difluoromethyl)-1,2,4-oxadiazol-5-yl)methyl)acrylic acid], in that order: 22.7 µM, 105 µL/min/1e6 cells, 53 µL/min/1e6 cells, 19 min and 23 min.
For `C=C(Cc1nc(C2(c3ccc(I)cc3)CC2)no1)C(=O)O` [Example 117, 2-((3-(1-(4-iodophenyl)cyclopropyl)-1,2,4-oxadiazol-5-yl)methyl)acrylic acid], in series [1], the IC50 (in general, the concentration that inhibits the measured activity by half) amounted to 3.4 µM. In addition, in series [2], the hepatocyte CLint at 10 μM was 183 µL/min/1e6 cells and the half-life (as a rule, the time needed for the level to fall by half in the phase considered) at 10 μM worked out at 7 min. In series [3], the intrinsic metabolic clearance (hepatocyte CLint) at 10 μM amounted to 36 µL/min/1e6 cells and the half-life at 10 μM was 43 min.
For `C=C(Cc1nc(Cc2cc(Cl)c(F)c(Cl)c2)no1)C(=O)O` [Example 134, 2-((3-(3,5-dichloro-4-fluorobenzyl)-1,2,4-oxadiazol-5-yl)methyl)acrylic acid], in that order: 15.8 µM, 17 µL/min/1e6 cells, 75 min, 13 µL/min/1e6 cells and 112 min.
For `C=C(Cc1nc(-c2ccc(C(F)(F)CCC)cc2)no1)C(=O)O` [Example 98, 2-((3-(4-(1,1-difluorobutyl)phenyl)-1,2,4-oxadiazol-5-yl)methyl)acrylic acid], in that order: 37.2 µM, 208 µL/min/1e6 cells, 6 min, 70 µL/min/1e6 cells and 23 min.
`C=C(Cc1nc(C2(c3ccc(Br)c(Cl)c3)CC2)no1)C(=O)O` [Example 138, 2-((3-(1-(4-bromo-3-chlorophenyl)cyclopropyl)-1,2,4-oxadiazol-5-yl)methyl)acrylic acid]: in series [1], half-maximal inhibition (IC50) was put at 3 µM. In series [2], the hepatocyte CLint at 10 μM was above 460 µL/min/1e6 cells and the half-life at 10 μM was below 3 min. In series [3], the hepatocyte CLint at 10 μM is 96 µL/min/1e6 cells and the half-life at 10 μM came out at 15 min.
For `C=C(Cc1noc(C(F)(F)c2ccc(C(F)(F)F)cc2)n1)C(=O)O` [Example 97, 2-((5-(difluoro(4-(trifluoromethyl)phenyl)methyl)-1,2,4-oxadiazol-3-yl)methyl)acrylic acid], in that order: 22.1 µM, 79 µL/min/1e6 cells, 15 min, 13 µL/min/1e6 cells and 125 min.
For `C=C(Cc1nc(-c2ccc(OCCCC)c(F)c2)no1)C(=O)O` [Example 129, 2-((3-(4-butoxy-3-fluorophenyl)-1,2,4-oxadiazol-5-yl)methyl)acrylic acid], in that order: 20.6 µM, above 460 µL/min/1e6 cells, below 3 min, 67 µL/min/1e6 cells and 22 min.
For `C=C(Cc1nc(C(F)(F)c2ccc(Br)c(Cl)c2)no1)C(=O)O` [Example 154, 2-((3-((4-bromo-3-chlorophenyl)difluoromethyl)-1,2,4-oxadiazol-5-yl)methyl)acrylic acid], in that order: 9.5 µM, 203 µL/min/1e6 cells, 7 min, 41 µL/min/1e6 cells and 35 min.
The compound `C=C(Cc1nc(-c2ccc(OCc3ccccc3)cc2)no1)C(=O)O` [Example 100, 2-((3-(4-(benzyloxy)phenyl)-1,2,4-oxadiazol-5-yl)methyl)acrylic acid] showed an IC50 in series [1] of 25.8 µM. For the same compound, in series [2], the intrinsic metabolic clearance (hepatocyte CLint) at 10 μM is above 460 µL/min/1e6 cells and the half-life at 10 μM is below 3 min. Moreover, in series [3], the hepatocyte CLint at 10 μM came to 77 µL/min/1e6 cells and the half-life at 10 μM stood at 19 min.
`C=C(Cc1cnc(CCCCCCCC)cn1)C(=O)O` [Example 113]: in series [1], it took 20.1 µM to reach half-maximal inhibition (IC50). Further, the intrinsic clearance (hepatocyte CLint) at 10 μM in series [2] is above 460 µL/min/1e6 cells; in series [3] it was 290 µL/min/1e6 cells. Further, the half-life at 10 μM in series [2] was below 3 min; in series [3] it was 5 min.
For `C=C(Cc1nc(C(F)(F)c2cc(Cl)c(F)c(Cl)c2)no1)C(=O)O` [Example 153, 2-((3-((3,5-dichloro-4-fluorophenyl)difluoromethyl)-1,2,4-oxadiazol-5-yl)methyl)acrylic acid], in that order: 17.3 µM, 44 µL/min/1e6 cells, 23 µL/min/1e6 cells, 34 min and 62 min.
`C=C(Cc1nc(Cc2ccc(CCCC)cc2)co1)C(=O)O` [Example 127, 2-((4-(4-butylbenzyl)oxazol-2-yl)methyl)acrylic acid] gave an IC50 in series [1] of 14.6 µM. Moreover, in series [2], the hepatocyte CLint at 10 μM stood at 478 µL/min/1e6 cells and the half-life at 10 μM came out at 3 min. In addition, in series [3], the hepatocyte CLint at 10 μM was determined as 245 µL/min/1e6 cells and the half-life at 10 μM was 6 min.
Consider `C=C(Cc1nc(-c2cccc(CCCC)c2)no1)C(=O)O` [Example 27, 2-((3-(3-butylphenyl)-1,2,4-oxadiazol-5-yl)methyl)acrylic acid], for which 29.6 µM corresponded to half-maximal inhibition in series [1] (IC50). Besides, in series [2], the hepatocyte CLint at 10 μM was found to be 281 µL/min/1e6 cells and the half-life at 10 μM worked out at 5 min. In addition, in series [3], the hepatocyte CLint at 10 μM was determined as 156 µL/min/1e6 cells and the half-life at 10 μM came out at 8 min.
For `C=C(Cc1nc(Cc2ccc(C3CCC3)cc2)no1)C(=O)O` [Example 128, 2-((3-(4-cyclobutylbenzyl)-1,2,4-oxadiazol-5-yl)methyl)acrylic acid], in that order: 26.3 µM, 256 µL/min/1e6 cells, 6 min, 49 µL/min/1e6 cells and 30 min.
For `C=C(Cc1nc(C2(c3ccc(OC4CCC4)cc3)CC2)no1)C(=O)O` [Example 111, 2-((3-(1-(4-cyclobutoxyphenyl)cyclopropyl)-1,2,4-oxadiazol-5-yl)methyl)acrylic acid], in that order: 31.4 µM, 382 µL/min/1e6 cells, 3 min, 23 µL/min/1e6 cells and 71 min.

These data come from patent US12617762B2, “Carboxy derivatives with antiinflamatory properties” (Sitryx Therapeutics Limited, priority 2019, dated 2026).
